Assay results from PubChem BioAssay (NCI).
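A five-concentration, 48-hour dose response in 96-well plates underlies each endpoint, interpolated linearly between surrounding concentrations. GI50: concentration for 50% inhibition of growth. TGI: concentration producing complete growth inhibition.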

Tests used:
Experiment in all cases: growth of human tumour cells (NCI), 48 h
ACHN renal = tested on: ACHN renal
OVCAR-4 ovarian = tested on: OVCAR-4 ovarian
SN12C renal = tested on: SN12C renal
NCI-H522 lung = tested on: NCI-H522 lung
MDA-MB-468 breast = tested on: MDA-MB-468 breast
SR leukemia = tested on: SR leukemia
IGROV1 ovarian = tested on: IGROV1 ovarian
NCI-H460 lung = tested on: NCI-H460 lung
HL-60(TB) leukemia = tested on: HL-60(TB) leukemia
M14 melanoma = tested on: M14 melanoma
DU-145 prostate = tested on: DU-145 prostate
SNB-19 CNS = tested on: SNB-19 CNS
MCF7 breast = tested on: MCF7 breast
OVCAR-8 ovarian = tested on: OVCAR-8 ovarian
NCI-H226 lung = tested on: NCI-H226 lung
HS 578T breast = tested on: HS 578T breast
UACC-62 melanoma = tested on: UACC-62 melanoma
MDA-MB-231 breast = tested on: MDA-MB-231 breast
K-562 leukemia = tested on: K-562 leukemia
SK-MEL-28 melanoma = tested on: SK-MEL-28 melanoma
786-0 renal = tested on: 786-0 renal
SF-268 CNS = tested on: SF-268 CNS
U251 CNS = tested on: U251 CNS
OVCAR-3 ovarian = tested on: OVCAR-3 ovarian
SK-MEL-5 melanoma = tested on: SK-MEL-5 melanoma
HOP-92 NSCLC = tested on: HOP-92 NSCLC
NCI/ADR-RES ovarian = tested on: NCI/ADR-RES ovarian
HCC-2998 colon = tested on: HCC-2998 colon
SW-620 colon = tested on: SW-620 colon
SNB-75 CNS = tested on: SNB-75 CNS

## COc1ccc(C(=O)/C=C/c2ccc(OC)c(OCc3ccccc3)c2)cc1OC
ACHN renal
  TGI: > 100 µM
OVCAR-4 ovarian
  GI50: 5.2 µM
  TGI: 61.5 µM
SN12C renal
  GI50: 2.89 µM
  TGI: > 100 µM
NCI-H522 lung
  GI50: 3.18 µM
  TGI: 26 µM
MDA-MB-468 breast
  GI50: 2.94 µM
  TGI: 19.6 µM
SR leukemia
  GI50: 2.06 µM
  TGI: 8.61 µM
IGROV1 ovarian
  GI50: 3.42 µM
  TGI: > 100 µM
NCI-H460 lung
  GI50: 3.67 µM
  TGI: 20.3 µM
HL-60(TB) leukemia
  GI50: 5.06 µM
  TGI: 24.8 µM
M14 melanoma
  GI50: 9.79 µM
  TGI: > 100 µM
DU-145 prostate
  GI50: 3.83 µM
  TGI: > 100 µM
SNB-19 CNS
  GI50: 3.46 µM
  TGI: > 100 µM
MCF7 breast
  GI50: 2.64 µM
  TGI: > 100 µM
OVCAR-8 ovarian
  GI50: 3.25 µM
  TGI: > 100 µM
NCI-H226 lung
  GI50: 6.35 µM
  TGI: 95.9 µM
HS 578T breast
  GI50: 7.71 µM
  TGI: 53.5 µM
UACC-62 melanoma
  GI50: 3.81 µM
  TGI: 33.9 µM
MDA-MB-231 breast
  GI50: 4.11 µM
  TGI: > 100 µM
K-562 leukemia
  GI50: 2.86 µM
  TGI: > 100 µM
SK-MEL-28 melanoma
  GI50: 21.4 µM
  TGI: > 100 µM
786-0 renal
  GI50: 4.13 µM
  TGI: > 100 µM
SF-268 CNS
  GI50: 8.91 µM
  TGI: 70.9 µM
U251 CNS
  GI50: 3.02 µM
  TGI: > 100 µM
OVCAR-3 ovarian
  GI50: 2.96 µM
  TGI: 19.6 µM
SK-MEL-5 melanoma
  GI50: 11.7 µM
  TGI: 27.5 µM
HOP-92 NSCLC
  GI50: 4.67 µM
  TGI: > 100 µM
NCI/ADR-RES ovarian
  GI50: 3 µM
  TGI: > 100 µM
HCC-2998 colon
  GI50: 3.39 µM
  TGI: > 100 µM
SW-620 colon
  GI50: 3.04 µM
  TGI: > 100 µM
SNB-75 CNS
  GI50: 1.59 µM
  TGI: 7.21 µM
